“Also recorded” adds a separate entry of the source. Where two headings read alike, the source gives them in different places.

For assay [1], the target named is T1, DOR (T7-tag-DOR) in HEK293 cells (Homo sapiens, UniProt P41143).
T1 construct: T7-tag; expressed in transfected cells
In words: cADDis cAMP assay, DOR. In kind it is cell-based.

Assay [2] addresses T2, MOR/DOR heteromer (Halotag-MOR/T7-tag-DOR) in HEK293 cells (Homo sapiens, UniProt P35372+P41143).
T2 construct: HaloTag; T7-tag; expressed in transfected cells
In words: cADDis cAMP assay, MOR/DOR heteromer. It is filed as cell-based.

In assay [3] the test system is DOR (CHO-K1 OPRD1). The assay can be described thus: PathHunter β-arrestin recruitment assay, DOR. As to conditions: 37 °C; for β-arrestin recruitment, DOR, in words: PathHunter, compared with 10^−5 M SNC-80, 90 min, n = 3–6. In kind it is cell-based.
In assay [4] the target is T3, KOR (Halotag-KOR) in HEK293 cells (Homo sapiens, UniProt P41145).
T3 construct: HaloTag; expressed in transfected cells
In words: CellKey impedance assay, antagonist mode, KOR. In kind it is cell-based. As to conditions: combined with U-50488H (10^−11–10^−5 M); negative control at 10^−5 concentration; n = 3–4.

Assay [5] has as its target T3, KOR (Halotag-KOR) in HEK293 cells. In words: cell-based. As to conditions: HEK293, read-out: Emax, cAMP assay, KOR (Table 1).
Assay [6] deals with MOR (Halotag-MOR) in HEK293 cells (Homo sapiens, UniProt P35372). In words: cell-based. In kind it is cell-based.
Assay [7] relates to DOR. As to conditions: rubiscolin-5 compared with rubiscolin-6; cited from earlier work. An excerpt: (§1) In view of the results of our cAMP assay, rubiscolins can be considered DOR-biased agonists, consistent with previous reports. […] Indeed, there is a structural ...
Assay [8] has as its system DOR. In words: G-protein bias at DOR, cADDis cAMP versus PathHunter β-arrestin. In kind it is cell-based. As to conditions: concluded from cADDis cAMP and PathHunter β-arrestin assays.
For assay [9] the following is noted: rubiscolin-6 versus rubiscolin-5; cited from earlier work.
From the text: as §1

The test system of assay [10] is receptor. As to conditions: rubiscolin-6 versus rubiscolin-5; cited from earlier work.
From the text: as §1

Assay [11] has as its system MOR (OPRM1). The assay can be described thus: PathHunter β-arrestin recruitment assay, MOR. As to conditions: compared with 10^−5 M DAMGO, 90 min, 37 °C, n = 3–6. It is filed as cell-based.
[12] abbreviates: HEK293, read-out: Emax, cAMP assay, DOR (Table 1).
[13] abbreviates: HEK293, read-out: Emax, cAMP assay, DOR (Table 2).
The mark [14] stands for this setting: HEK293, read-out: Emax, cAMP assay, MOR (Table 1).
Setting [15] is: HEK293, read-out: Emax, cAMP assay, MOR (Table 2).
Where [16] appears, read: cADDis cAMP assay, HEK293 T7-tag-DOR.

T1 sequence (P41143 whole entry): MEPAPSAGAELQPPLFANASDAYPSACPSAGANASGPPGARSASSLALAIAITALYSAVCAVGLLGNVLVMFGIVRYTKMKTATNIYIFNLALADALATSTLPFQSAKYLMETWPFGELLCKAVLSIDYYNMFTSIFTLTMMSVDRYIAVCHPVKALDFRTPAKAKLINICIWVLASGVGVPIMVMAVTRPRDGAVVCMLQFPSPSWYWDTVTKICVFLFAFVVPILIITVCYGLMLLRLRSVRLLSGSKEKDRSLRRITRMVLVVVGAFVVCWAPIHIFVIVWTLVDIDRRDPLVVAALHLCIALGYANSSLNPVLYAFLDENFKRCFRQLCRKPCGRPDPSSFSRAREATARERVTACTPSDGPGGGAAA
T3 sequence (P41145 whole entry): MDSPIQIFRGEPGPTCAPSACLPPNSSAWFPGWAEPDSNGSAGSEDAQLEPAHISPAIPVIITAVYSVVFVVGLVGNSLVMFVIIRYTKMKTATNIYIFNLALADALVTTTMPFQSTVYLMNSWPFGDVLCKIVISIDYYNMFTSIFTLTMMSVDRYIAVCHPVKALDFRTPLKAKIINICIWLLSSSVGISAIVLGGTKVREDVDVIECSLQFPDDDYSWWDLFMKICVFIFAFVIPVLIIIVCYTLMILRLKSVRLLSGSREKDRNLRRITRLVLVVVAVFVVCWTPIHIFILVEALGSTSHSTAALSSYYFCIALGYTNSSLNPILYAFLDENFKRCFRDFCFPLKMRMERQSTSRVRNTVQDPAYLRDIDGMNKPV
Chain of MOR (Halotag-MOR) in HEK293 cells (P35372 whole entry): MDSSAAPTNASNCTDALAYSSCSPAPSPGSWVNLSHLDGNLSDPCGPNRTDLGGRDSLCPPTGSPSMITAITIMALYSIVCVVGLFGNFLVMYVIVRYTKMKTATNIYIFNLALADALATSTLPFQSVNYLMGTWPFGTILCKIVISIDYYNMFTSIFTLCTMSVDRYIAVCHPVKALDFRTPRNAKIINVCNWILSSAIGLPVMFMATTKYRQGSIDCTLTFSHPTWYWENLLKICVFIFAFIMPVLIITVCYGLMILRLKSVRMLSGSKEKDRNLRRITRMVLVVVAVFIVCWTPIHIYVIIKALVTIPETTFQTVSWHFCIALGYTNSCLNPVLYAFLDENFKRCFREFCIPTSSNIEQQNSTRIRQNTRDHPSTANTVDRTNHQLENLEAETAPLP
T2 sequence (P35372 whole entry): as above
T2 sequence (P41143 whole entry): as the sequence (P41143 whole entry) above

In the case of `C[C@@H](NC(=O)[C@@H](N)Cc1ccc(O)cc1)C(=O)NCC(=O)N(C)[C@@H](Cc1ccccc1)C(=O)NCCO` [DAMGO, D-Ala(2)-N-Me-Phe(4)-Gly-ol(5)-enkephalin, reference compound], the Emax worked out at 90.9 ± 8.9% in assay [1] (HEK293; read-out: Emax, cAMP assay, DOR (Table 1)); 90.9 ± 8.9% in assay [1] (HEK293; read-out: Emax, cAMP assay, DOR (Table 2)); 91.1 ± 5.4% in assay [2] (relative to 10^−5 M ML335, cADDis sensor, 50 μM forskolin, 28 °C, 40 min reading, 10^−11–10^−5 M, means ± S.E.M. (n = 6–8), Figure 6, + p < 0.05 vs ML335, read-out: Emax, cAMP assay, MOR/DOR (Table 2)).

Turning to `C=CCN1C[C@H](C)N([C@H](c2ccc(C(=O)N(CC)CC)cc2)c2cccc(OC)c2)C[C@H]1C` [SNC-80, (+)-4-[(aR)-a-((2S,5R)-4-allyl-2,5-dimethyl-1-piperazinyl)-3-methoxybenzyl]-N,N-diethylbenzamide, reference compound], the “Emax, β-arrestin recruitment, DOR” value in assay [3] (relative to 10^−5 M SNC-80, 90 min stimulation, luminescence, 10^−11–10^−5 M, means ± S.E.M. (n = 3–6), Figure 5B) turned out to be 100.0 ± 2.6%.

For the compound `Oc1ccc2c3c1O[C@H]1c4[nH]c5c(c4C[C@@]4(O)[C@@H](C2)N(CC2CC2)CC[C@]314)C[C@@]1(O)[C@H]2Cc3ccc(O)c4c3[C@@]1(CCN2CC1CC1)[C@H]5O4` [norBNI, norbinaltorphimine], the “antagonistic effect, CellKey, KOR” value in assay [4] was “completely suppressed the agonistic effects of the positive control”.

Turning to “H-YPLDL-OH [Rubiscolin-5, H-Tyr-Pro-Leu-Asp-Leu-OH]”, in assay [3], the “β-arrestin recruitment, DOR, in words” value is “the most irrelevant with regard to the activity through the β-arrestin-mediated pathway; also recorded: equivalently negligible”. This compound also had an EC50 in assay [1] of 501 nM. In addition, the Emax in [1] (setting [12]) is 78.4 ± 6.7%; in assay [1] (setting [13]), 78.4 ± 6.7%; in [5] it was 9.6 ± 9%; in [6] (setting [14]), 27.5 ± 5.5%; in [6] (setting [15]), 27.5 ± 5.5%. Besides, in assay [7], the “G-protein bias (bias factor), previous study” value is recorded as “more G-protein-biased than rubiscolin-6”. Further, the “G-protein bias / agonist type at DOR” value in assay [8] is “G-protein-biased DOR full agonists without affecting MOR and KOR”.

As to “H-YPLDLF-OH [Rubiscolin-6, H-Tyr-Pro-Leu-Asp-Leu-Phe-OH]”, the “β-arrestin recruitment, DOR, in words” value in assay [3] is reported as “the most irrelevant with regard to the activity through the β-arrestin-mediated pathway; also recorded: equivalently negligible”. The same compound had an EC50 in assay [1] of 316 nM. Moreover, the Emax in assay [1] (setting [12]) was found to be 103 ± 4.1%; in assay [1] (setting [13]) it was 103 ± 4.1%; in [5], 39.8 ± 20.5%; in assay [6] (setting [14]), 14.3 ± 3.2%; in assay [6] (setting [15]), 14.3 ± 3.2%. In addition, the “effect through G-protein-mediated pathway (cAMP), DOR, in words” value in assay [1] (setting [16]) was “robust effect on DOR at 10^−5 concentration; also recorded: relatively stronger than rubiscolin-5 in activating the G-protein-mediated intracellular pathway”. Further, the “potency in analgesia relative to rubiscolin-5” value in assay [9] is listed as “about twice as potent in analgesia as rubiscolin-5”. For the same compound, the “receptor affinity relative to rubiscolin-5” value in assay [10] was “higher receptor affinity”. Moreover, in assay [8], the “G-protein bias / agonist type at DOR” value is “G-protein-biased DOR full agonists without affecting MOR and KOR”.

Turning to ML335 [reference compound], the “β-arrestin recruitment, DOR, in words” value in [3] is “partially recruited β-arrestin through both MOR and DOR”. Also, in [1] (-LogEC50; HEK293 T7-tag-DOR; means ± S.E.M. (n = 6–8), Figure 6; # p < 0.05 vs SNC-80), the “pEC50, cAMP assay, DOR (Table 2)” value is given as 7.5 ± 0.1 ^# M. Besides, in assay [1] (setting [16]), the “effect through G-protein-mediated pathway (cAMP), DOR, in words” value was “full agonist for both MOR and DOR”. The “Emax, cAMP assay, DOR (Table 2)” value in assay [1] (relative to 10^−5 M SNC-80; HEK293 T7-tag-DOR; forskolin-stimulated; 10^−11–10^−5 M; means ± S.E.M. (n = 6–8), Figure 6; # p < 0.05 vs SNC-80) was determined as 111.6 ± 3.6%. In addition, the “β-arrestin recruitment, MOR, in words” value in assay [11] was “partially recruited β-arrestin through both MOR and DOR”. In addition, the “pEC50, cAMP assay, MOR/DOR (Table 2)” value in assay [2] (-LogEC50, means ± S.E.M. (n = 6–8), Figure 6, + p < 0.05 vs ML335) was 7.0 ± 0.1 M. Also, in assay [2] (cADDis cAMP assay, compared with ML335), the “effect through G-protein-mediated pathway (cAMP), MOR/DOR heteromer, in words” value is “full agonist of MOR/DOR”. For the same compound, in assay [2] (relative to 10^−5 M ML335, cADDis sensor, 50 μM forskolin, 28 °C, 40 min reading, 10^−11–10^−5 M, means ± S.E.M. (n = 6–8), Figure 6, + p < 0.05 vs ML335), the “Emax, cAMP assay, MOR/DOR (Table 2)” value is on record as 100.0 ± 4.2%. Further, in [6], the “Emax, cAMP assay, MOR (Table 2)” value turned out to be 112.5 ± 5.3%; the “effect through G-protein-mediated pathway (cAMP), MOR, in words” value was “full agonist for both MOR and DOR”; the “pEC50, cAMP assay, MOR (Table 2)” value amounted to 7.6 ± 0.1 M.

The values above are taken from article PMC8513079 (Molecules, 2021).
